Values of other authors in patent publication US20170173059A1, “Novel Combination of Naturally Occurring Compounds to Assist With Suspected Mycobacterial Infections Related to Autoimmune Conditions” (priority 2015, published 2017).
Entries after “also recorded” stand apart in the source; their conditions may differ. Like-named read-outs stand apart in the source and are kept apart here.

Experiments:
[1] = test system: multidrug resistance pumps (MDR pumps)
[2] = test system: MAP; conditions: bovine and human MAP strains, radiometric culture
[3] = test system: colon tissue
[4] = test system: Mycobacterium avium subspecies paratuberculosis (MAP); conditions: selected strains of MAP
[5] = material data safety sheets / classification
[6] = test system: M. avium; conditions: radiometric culture
[7] = test system: M.Tb; conditions: radiometric culture
[8] = target: T1, 5-lipoxygenase (Homo sapiens, UniProt P09917)
T1 sequence (P09917 1-674): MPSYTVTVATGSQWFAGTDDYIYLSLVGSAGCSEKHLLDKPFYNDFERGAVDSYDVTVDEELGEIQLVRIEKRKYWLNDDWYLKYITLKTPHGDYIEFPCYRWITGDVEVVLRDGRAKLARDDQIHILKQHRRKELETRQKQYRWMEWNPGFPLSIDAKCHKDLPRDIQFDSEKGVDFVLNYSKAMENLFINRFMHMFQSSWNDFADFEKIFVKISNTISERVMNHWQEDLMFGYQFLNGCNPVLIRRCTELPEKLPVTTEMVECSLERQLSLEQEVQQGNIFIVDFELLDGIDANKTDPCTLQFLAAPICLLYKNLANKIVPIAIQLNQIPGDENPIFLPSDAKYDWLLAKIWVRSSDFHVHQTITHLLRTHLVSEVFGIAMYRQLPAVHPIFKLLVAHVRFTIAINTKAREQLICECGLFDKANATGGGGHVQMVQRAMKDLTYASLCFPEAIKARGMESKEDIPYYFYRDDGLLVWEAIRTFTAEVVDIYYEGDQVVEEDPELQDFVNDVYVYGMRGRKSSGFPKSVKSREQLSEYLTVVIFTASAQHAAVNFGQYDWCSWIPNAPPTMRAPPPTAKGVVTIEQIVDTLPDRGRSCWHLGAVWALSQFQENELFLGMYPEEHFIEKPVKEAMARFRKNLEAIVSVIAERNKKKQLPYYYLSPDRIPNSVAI

[9] = test system: family of mycobacteria
[10] = test system: patients with inflammatory bowel disease; conditions: Boswellia group versus sulfasalazine control group

COc1cc(C2Oc3cc(-c4cc(=O)c5c(O)cc(O)cc5o4)ccc3OC2CO)cc(OC)c1O (stereo not drawn) [Example 5-MHC, 5-methoxyhydnocarpin]
multi-drug resistance pump inhibition [1]: multi-drug resistance pump inhibitor

CC1=C(/C=C/C(C)=C/C=C/C(C)=C\C(=O)O)C(C)(C)CCC1 [13 cis-retinoic acid]
inhibition of MAP strains in vitro [2]: inhibitory effects

CC1=C(/C=C/C(C)=C/C=C/C(C)=C/C=C/C=C(C)/C=C/C=C(C)/C=C/C2=C(C)CCCC2(C)C)C(C)(C)CCC1 [β carotene]
inhibition of MAP strains in vitro [2]: inhibitory effects

CC(=O)OC/C=C(C)/C=C/C=C(C)/C=C/C1=C(C)CCCC1(C)C [retinyl acetate]
inhibition of MAP strains in vitro [2]: inhibitory effects; also recorded: highest inhibition of the group

C=C1CC[C@H](O)C/C1=C/C=C1\CCC[C@]2(C)[C@@H]([C@H](C)CCCC(C)C)CC[C@@H]12 [Vitamin D3, cholecalciferol]
inhibition of MAP strains in vitro [2]: shown inhibition
anti-neoplastic activity in colon tissue [3]: specific anti-neoplastic activity
anti-neoplastic activity in colon tissue ([3]; listed as D3): protect against neoplastic development

CC[C@@]1([C@@H]2O[C@@H]([C@H]3O[C@@](O)(CO)[C@H](C)C[C@@H]3C)C[C@@H]2C)CC[C@H]([C@]2(C)CC[C@]3(C[C@H](O)[C@@H](C)[C@@H]([C@@H](C)[C@@H](OC)[C@H](C)C(=O)O)O3)O2)O1 [Monensin]
inhibition of MAP strains in vitro [2]: displayed inhibition of MAP

O=C/C=C/c1ccccc1 [Trans-cinnamaldehyde]
inhibition of MAP in vitro [4]: shown to inhibit
safety listing (GRAS) [5]: GRAS

CC1=C(/C=C/C(C)=C/C=C/C(C)=C/CO)C(C)(C)CCC1 [Retinol, (2E,4E,6E,8E)-3,7-Dimethyl-9-(2,6,6-trimethyl-cyclohex-1-enyl)-nona-2,4,6,8-tetraen-1-ol]
inhibition of MAP strains in vitro [2]: strong inhibitory effect
inhibition of M. avium [6]: strong inhibitory effect
inhibition of M.Tb [7]: strong inhibitory effect

CC(=O)O[C@@H]1CC[C@@]2(C)[C@@H](CC[C@]3(C)[C@@H]2C(=O)C=C2[C@@H]4[C@@H](C)[C@H](C)CC[C@]4(C)CC[C@]23C)[C@@]1(C)C(=O)O [acetyl-11-keto-beta-boswellic acid]
effect on 5-lipoxygenase [8]: influenced

Cc1ncc([N+](=O)[O-])n1CCO [Metronidazole]
action against the family of mycobacteria [9]: little to no action

Vitamin A
inhibition of MAP strains in vitro [2]: in vitro inhibition
inhibition of MAP strains in vitro ([2]; listed as vitamin A): found to inhibit

CC1(C)S[C@@H]2[C@H](NC(=O)[C@H](N)c3ccc(O)cc3)C(=O)N2[C@H]1C(=O)O [Amoxicillin]
action against the family of mycobacteria [9]: little to no action

O=CC=Cc1ccccc1 [Cinnamaldehyde]
inhibition of MAP in vitro [4]: shown to inhibit
safety listing (GRAS) [5]: GRAS

O=C(O)c1cc(/N=N/c2ccc(S(=O)(=O)Nc3ccccn3)cc2)ccc1O [sulfasalazine]
remission rates [10]: 75%
